Conditions: phenol between MCT oil phase and saline phase; oil and saline 19:1; HPLC
Description: The partition coefficient P is a value calculated by dividing a concentration of preservative in the oil phase by a concentration of preservative in the water phase.

## Oc1ccccc1 [phenol]
  logP: 1.1

Reference: patent US9161981B2 (LG LIFE SCIENCES, LTD., priority 2010, dated 2015)
